Laboratory results: PubChem BioAssay AID651964 (The Scripps Research Institute Molecular Screening Center, 2012)

Key:
Assay in all cases: PubChem AID 651964; call rule not given here
GCLM = conditions: mouse embryonic fibroblasts, qRT-PCR mRNA fold induction, at 10 µM (top of the series)
[1] = molecular target: DNA damage-inducible transcript 3 protein (Mus musculus) (UniProt P35639); conditions: mouse embryonic fibroblasts, qRT-PCR mRNA fold induction; CHOP; at 10 µM (top of the series)
HO-1 = conditions: mouse embryonic fibroblasts, qRT-PCR mRNA fold induction, at 10 µM (top of the series)
BiP = conditions: mouse embryonic fibroblasts, qRT-PCR mRNA fold induction, at 10 µM (top of the series)
Hsp70 = conditions: mouse embryonic fibroblasts, qRT-PCR mRNA fold induction, at 10 µM (top of the series)

Measured: fold induction of mRNA

Sequence of DNA damage-inducible transcript 3 protein (Mus musculus) (P35639 whole entry, looked up): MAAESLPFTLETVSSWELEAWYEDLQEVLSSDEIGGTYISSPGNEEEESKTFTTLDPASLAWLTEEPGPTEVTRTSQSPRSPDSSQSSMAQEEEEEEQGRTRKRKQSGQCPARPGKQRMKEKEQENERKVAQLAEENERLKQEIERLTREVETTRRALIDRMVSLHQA

COc1ccc(/C=C/C=C2C(=O)NC(=O)NC2=O)cc1
active: GCLM 1.6 | [1] 2.08 | HO-1 5.54 | BiP 2.18 | Hsp70 18.9
